System: calcium channels
Details: read-out: IC50 values for blocking calcium channels; rat cerebellar granule cells, fura2 fluorescence, 37° C.

Compound `COc1ccc(CCN(C)CCCC(C#N)(c2ccc(OC)c(OC)c2)C(C)C)cc1OC` (stereo not shown) [Verapamil] has an IC50 of 4.8 µM.

Reference: patent US5804554A, “Calcium channel blocking polypeptides from filistata hibernalis” (priority 1995, dated 1998)
